Tests used:
[1] = biological target: CLK2 (Homo sapiens, UniProt P49760); conditions: 1 µM, ATP at Km
[2] = biological target: SAPK4 (Homo sapiens, UniProt O15264); conditions: 1 µM, ATP at Km
[3] = biological target: HASPIN (Homo sapiens, UniProt Q8TF76); conditions: 1 µM, ATP at Km
[4] = biological target: IKKBETA (Homo sapiens, UniProt O14920); conditions: 1 µM, ATP at Km
[5] = biological target: TAO3 (Homo sapiens, UniProt Q9H2K8); conditions: 1 µM, ATP at Km
[6] = biological target: RIPK2 (Homo sapiens, UniProt O43353); conditions: 1 µM, ATP at Km
[7] = biological target: ALK (Homo sapiens, UniProt Q9UM73); conditions: 1 µM, ATP at Km
[8] = biological target: CRAF (Homo sapiens, UniProt P04049); conditions: 1 µM, ATP at Km
Sequence of CRAF (P04049 whole entry): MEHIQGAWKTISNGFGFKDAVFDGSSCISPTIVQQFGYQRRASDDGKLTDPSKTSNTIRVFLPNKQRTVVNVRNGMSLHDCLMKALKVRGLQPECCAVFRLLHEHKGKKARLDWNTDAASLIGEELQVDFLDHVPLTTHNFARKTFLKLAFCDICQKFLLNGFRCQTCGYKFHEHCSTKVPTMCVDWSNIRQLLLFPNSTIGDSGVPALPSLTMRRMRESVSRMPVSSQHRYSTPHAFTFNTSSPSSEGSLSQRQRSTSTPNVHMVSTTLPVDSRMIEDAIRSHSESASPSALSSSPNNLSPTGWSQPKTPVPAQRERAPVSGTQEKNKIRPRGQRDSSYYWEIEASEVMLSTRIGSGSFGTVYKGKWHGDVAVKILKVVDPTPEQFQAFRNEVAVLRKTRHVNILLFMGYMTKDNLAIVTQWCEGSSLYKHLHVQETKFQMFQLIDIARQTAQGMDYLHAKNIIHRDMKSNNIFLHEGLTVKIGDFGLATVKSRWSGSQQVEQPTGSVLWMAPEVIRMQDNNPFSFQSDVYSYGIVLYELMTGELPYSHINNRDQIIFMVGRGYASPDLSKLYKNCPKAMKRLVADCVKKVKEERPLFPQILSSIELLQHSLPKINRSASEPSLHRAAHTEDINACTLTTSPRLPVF

[9] = biological target: CDK3/CYCLINE (Homo sapiens, UniProt Q00526); conditions: 1 µM, ATP at Km
Sequence of CDK3/CYCLINE (P24864 whole entry): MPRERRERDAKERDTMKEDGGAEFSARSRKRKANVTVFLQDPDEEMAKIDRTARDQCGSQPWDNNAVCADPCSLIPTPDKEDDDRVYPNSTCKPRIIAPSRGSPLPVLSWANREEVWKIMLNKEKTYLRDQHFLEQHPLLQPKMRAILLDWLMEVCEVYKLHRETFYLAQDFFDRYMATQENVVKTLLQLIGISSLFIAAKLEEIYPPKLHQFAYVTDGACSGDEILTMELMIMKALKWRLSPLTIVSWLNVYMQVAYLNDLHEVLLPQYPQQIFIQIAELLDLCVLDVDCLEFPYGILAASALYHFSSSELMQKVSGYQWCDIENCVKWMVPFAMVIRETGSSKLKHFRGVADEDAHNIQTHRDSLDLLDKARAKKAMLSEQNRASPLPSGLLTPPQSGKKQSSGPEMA
Sequence of CDK3/CYCLINE (Q00526 whole entry): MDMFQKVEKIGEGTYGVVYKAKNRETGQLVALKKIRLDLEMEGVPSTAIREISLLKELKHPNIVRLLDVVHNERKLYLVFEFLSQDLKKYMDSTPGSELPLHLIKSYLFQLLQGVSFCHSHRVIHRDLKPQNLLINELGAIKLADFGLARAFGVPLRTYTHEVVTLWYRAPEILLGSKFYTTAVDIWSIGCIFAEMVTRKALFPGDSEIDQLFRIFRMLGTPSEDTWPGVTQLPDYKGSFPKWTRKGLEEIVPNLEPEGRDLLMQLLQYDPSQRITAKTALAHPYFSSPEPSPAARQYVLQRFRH

[10] = biological target: CDK7/CYCLINH/MAT1 (Homo sapiens, UniProt P50613); conditions: 1 µM, ATP at Km
[11] = biological target: HIPK1 (Homo sapiens, UniProt Q86Z02); conditions: 1 µM, ATP at Km
[12] = biological target: MRCKALPHA (Homo sapiens, UniProt Q5VT25); conditions: 1 µM, ATP at Km
[13] = biological target: TAO1 (Homo sapiens, UniProt Q7L7X3); conditions: 1 µM, ATP at Km
[14] = biological target: TEC ACTIVATED (Homo sapiens, UniProt P42680); conditions: 1 µM, ATP at Km
[15] = biological target: IRAK4 (Homo sapiens, UniProt Q9NWZ3); conditions: 1 µM, ATP at Km
[16] = biological target: BLK (Homo sapiens, UniProt P51451); conditions: 1 µM, ATP at Km
[17] = biological target: GRK6 (Homo sapiens, UniProt P43250); conditions: 1 µM, ATP at Km
[18] = biological target: YES (Homo sapiens, UniProt P07947); conditions: 1 µM, ATP at Km
[19] = biological target: DYRK2 (Homo sapiens, UniProt Q92630); conditions: 1 µM, ATP at Km
Sequence of DYRK2 (Q92630 whole entry): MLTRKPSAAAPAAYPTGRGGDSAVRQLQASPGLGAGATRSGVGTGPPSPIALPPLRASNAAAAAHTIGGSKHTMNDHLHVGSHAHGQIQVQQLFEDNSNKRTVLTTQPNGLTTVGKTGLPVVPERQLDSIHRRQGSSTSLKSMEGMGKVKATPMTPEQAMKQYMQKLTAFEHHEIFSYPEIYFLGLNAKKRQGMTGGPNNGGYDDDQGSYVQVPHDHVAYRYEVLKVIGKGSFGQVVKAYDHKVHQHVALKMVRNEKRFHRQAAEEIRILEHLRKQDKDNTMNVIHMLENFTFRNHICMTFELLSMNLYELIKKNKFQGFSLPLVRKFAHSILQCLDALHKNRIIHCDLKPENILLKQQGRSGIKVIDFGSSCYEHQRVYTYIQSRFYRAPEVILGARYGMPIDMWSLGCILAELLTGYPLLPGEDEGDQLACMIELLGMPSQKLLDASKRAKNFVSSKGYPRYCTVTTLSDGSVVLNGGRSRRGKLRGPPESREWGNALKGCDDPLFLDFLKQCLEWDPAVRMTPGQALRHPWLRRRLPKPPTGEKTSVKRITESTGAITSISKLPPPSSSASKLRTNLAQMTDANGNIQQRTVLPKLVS

[20] = biological target: RET (Homo sapiens, UniProt P07949); conditions: 1 µM, ATP at Km
[21] = biological target: PEK (Homo sapiens, UniProt Q9NZJ5); conditions: 1 µM, ATP at Km
[22] = biological target: CDK5/P35 (Homo sapiens, UniProt Q00535); conditions: 1 µM, ATP at Km
[23] = biological target: WNK3 (Homo sapiens, UniProt Q9BYP7); conditions: 1 µM, ATP at Km
[24] = test system: phospho-STAT1^SER727; test: cells; conditions: Homo sapiens, SW-620, read-out: pSTAT1^SER727 IC50 ± SD
[25] = biological target: ROS (Homo sapiens, UniProt P08922); conditions: 1 µM, ATP at Km
[26] = biological target: TBK1 (Homo sapiens, UniProt Q9UHD2); conditions: 1 µM, ATP at Km
[27] = biological target: PAR-1BALPHA (Homo sapiens, UniProt Q7KZI7); conditions: 1 µM, ATP at Km
[28] = biological target: AURKC (Homo sapiens, UniProt Q9UQB9); conditions: 1 µM, ATP at Km
Sequence of AURKC (Q9UQB9 whole entry): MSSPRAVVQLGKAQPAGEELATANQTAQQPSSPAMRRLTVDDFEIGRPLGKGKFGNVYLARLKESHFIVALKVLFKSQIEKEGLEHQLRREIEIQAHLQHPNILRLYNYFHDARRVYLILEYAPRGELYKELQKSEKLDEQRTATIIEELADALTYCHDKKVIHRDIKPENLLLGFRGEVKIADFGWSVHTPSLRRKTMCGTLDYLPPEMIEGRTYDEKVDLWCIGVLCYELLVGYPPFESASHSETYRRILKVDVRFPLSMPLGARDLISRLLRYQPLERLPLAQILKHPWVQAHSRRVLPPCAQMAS

[29] = biological target: SAPK2A (Homo sapiens, UniProt Q16539); conditions: 1 µM, ATP at Km
[30] = biological target: MSSK1 (Homo sapiens, UniProt Q9UPE1); conditions: 1 µM, ATP at Km
[31] = biological target: […] (Homo sapiens, UniProt Q13557); conditions: 1 µM, ATP at Km
[32] = biological target: IR (Homo sapiens, UniProt P06213); conditions: 1 µM, ATP at Km
[33] = biological target: PI3K BETA (Homo sapiens, UniProt P42338); conditions: 1 µM, ATP at Km
Sequence of PI3K BETA (P42338 whole entry): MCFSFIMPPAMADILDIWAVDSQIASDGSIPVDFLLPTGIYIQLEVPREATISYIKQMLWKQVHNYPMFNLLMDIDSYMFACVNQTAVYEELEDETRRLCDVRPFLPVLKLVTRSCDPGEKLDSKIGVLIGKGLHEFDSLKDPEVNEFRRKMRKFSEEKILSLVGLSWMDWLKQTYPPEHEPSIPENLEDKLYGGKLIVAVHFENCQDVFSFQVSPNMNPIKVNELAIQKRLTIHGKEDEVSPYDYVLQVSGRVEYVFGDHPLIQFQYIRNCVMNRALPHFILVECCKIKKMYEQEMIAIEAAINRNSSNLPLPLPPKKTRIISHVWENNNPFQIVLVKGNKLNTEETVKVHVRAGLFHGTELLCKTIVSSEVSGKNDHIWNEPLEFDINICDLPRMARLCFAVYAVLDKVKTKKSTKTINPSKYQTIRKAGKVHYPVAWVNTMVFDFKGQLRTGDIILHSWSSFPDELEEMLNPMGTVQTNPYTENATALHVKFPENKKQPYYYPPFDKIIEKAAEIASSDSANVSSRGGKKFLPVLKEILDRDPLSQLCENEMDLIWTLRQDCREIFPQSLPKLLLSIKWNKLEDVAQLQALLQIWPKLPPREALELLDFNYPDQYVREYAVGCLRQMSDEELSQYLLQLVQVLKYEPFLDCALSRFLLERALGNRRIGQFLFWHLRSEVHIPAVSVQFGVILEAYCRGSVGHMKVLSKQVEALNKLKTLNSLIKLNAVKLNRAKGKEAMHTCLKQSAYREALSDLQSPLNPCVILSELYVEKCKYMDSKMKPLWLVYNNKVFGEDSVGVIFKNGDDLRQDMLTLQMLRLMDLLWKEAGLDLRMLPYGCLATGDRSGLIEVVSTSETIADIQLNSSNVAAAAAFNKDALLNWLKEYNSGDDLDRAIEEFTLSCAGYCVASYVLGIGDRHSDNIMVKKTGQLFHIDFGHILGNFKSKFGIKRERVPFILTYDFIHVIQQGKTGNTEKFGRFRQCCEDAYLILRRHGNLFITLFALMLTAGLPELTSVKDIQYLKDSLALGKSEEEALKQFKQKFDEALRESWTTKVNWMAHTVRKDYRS
Sequence of PI3K BETA (P27986 whole entry partner): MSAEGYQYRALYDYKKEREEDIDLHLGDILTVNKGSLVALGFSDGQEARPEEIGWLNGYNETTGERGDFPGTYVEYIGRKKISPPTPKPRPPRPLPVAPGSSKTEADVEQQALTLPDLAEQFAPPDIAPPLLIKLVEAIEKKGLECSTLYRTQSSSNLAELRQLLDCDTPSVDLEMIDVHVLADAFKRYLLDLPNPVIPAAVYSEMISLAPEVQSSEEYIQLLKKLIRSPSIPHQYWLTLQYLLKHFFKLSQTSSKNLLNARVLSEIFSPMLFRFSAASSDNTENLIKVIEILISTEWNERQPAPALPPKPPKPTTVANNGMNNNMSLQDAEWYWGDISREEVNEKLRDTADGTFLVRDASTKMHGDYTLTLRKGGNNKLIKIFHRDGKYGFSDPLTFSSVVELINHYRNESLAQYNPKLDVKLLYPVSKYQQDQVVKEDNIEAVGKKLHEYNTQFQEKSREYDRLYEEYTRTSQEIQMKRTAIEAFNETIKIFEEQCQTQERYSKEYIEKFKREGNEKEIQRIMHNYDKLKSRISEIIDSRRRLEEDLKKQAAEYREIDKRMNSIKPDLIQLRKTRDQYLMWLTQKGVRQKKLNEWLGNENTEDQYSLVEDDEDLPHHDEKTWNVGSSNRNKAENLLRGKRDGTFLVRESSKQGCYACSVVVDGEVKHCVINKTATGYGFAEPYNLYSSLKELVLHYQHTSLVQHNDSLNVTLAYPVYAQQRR

[34] = biological target: MST3 (Homo sapiens, UniProt Q9Y6E0); conditions: 1 µM, ATP at Km
[35] = biological target: DDR2 (Homo sapiens, UniProt Q16832); conditions: 1 µM, ATP at Km
[36] = biological target: PKG1ALPHA (Homo sapiens, UniProt Q13976); conditions: 1 µM, ATP at Km
[37] = biological target: EPHA7 (Homo sapiens, UniProt Q15375); conditions: 1 µM, ATP at Km
[38] = biological target: CDK2/CYCLINE (Homo sapiens, UniProt P24941); conditions: 1 µM, ATP at Km
[39] = biological target: PAK4 (Homo sapiens, UniProt O96013); conditions: 1 µM, ATP at Km
[40] = biological target: JNK3 (Homo sapiens, UniProt P53779); conditions: 1 µM, ATP at Km
[41] = biological target: PAK5 (Homo sapiens, UniProt Q9P286); conditions: 1 µM, ATP at Km
[42] = biological target: EPHA4 (Homo sapiens, UniProt P54764); conditions: 1 µM, ATP at Km
[43] = biological target: FMS (Homo sapiens, UniProt P07333); conditions: 1 µM, ATP at Km
[44] = biological target: ERBB4 (Homo sapiens, UniProt Q15303); conditions: 1 µM, ATP at Km

Sequence of TAO3 (Q9H2K8 whole entry): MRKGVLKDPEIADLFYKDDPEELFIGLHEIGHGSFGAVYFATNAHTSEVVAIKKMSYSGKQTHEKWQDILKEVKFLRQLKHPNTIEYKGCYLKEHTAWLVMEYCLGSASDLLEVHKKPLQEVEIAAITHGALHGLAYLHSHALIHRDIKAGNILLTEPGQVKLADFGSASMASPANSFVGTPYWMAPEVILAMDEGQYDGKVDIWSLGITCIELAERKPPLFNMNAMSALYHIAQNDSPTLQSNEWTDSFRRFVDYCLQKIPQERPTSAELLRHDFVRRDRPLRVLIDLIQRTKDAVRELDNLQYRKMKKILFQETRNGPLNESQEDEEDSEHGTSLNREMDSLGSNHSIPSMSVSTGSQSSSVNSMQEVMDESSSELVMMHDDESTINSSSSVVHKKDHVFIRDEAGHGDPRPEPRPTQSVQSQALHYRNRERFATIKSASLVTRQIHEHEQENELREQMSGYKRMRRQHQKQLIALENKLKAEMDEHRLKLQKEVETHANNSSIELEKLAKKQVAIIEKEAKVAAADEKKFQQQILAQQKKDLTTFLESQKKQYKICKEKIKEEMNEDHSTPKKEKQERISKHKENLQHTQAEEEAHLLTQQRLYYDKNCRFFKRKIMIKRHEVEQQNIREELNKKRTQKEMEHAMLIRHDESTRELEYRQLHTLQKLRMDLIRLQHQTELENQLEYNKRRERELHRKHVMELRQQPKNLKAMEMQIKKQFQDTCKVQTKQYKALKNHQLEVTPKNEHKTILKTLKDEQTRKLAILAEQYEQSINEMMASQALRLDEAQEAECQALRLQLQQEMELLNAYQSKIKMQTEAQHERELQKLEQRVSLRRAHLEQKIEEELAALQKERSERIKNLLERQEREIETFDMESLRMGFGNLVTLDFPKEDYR

SMILES: COC1CN(C(=O)c2ccc3c(N)ncc(-c4ccc(-c5cnn(C)c5)cc4)c3n2)C1 [Compound 51]
- percentage effect [1]: -18%
- percentage effect [2]: 2%
- percentage effect [3]: -7%
- percentage effect [4]: -14%
- percentage effect [5]: -16%
- percentage effect [6]: -16%
- percentage effect [7]: -20%
- percentage effect [8]: -20%
- percentage effect [9]: 4%
- percentage effect [10]: 20%
- percentage effect [11]: 5%
- percentage effect [12]: 2%
- percentage effect [13]: -1%
- percentage effect [14]: -18%
- percentage effect [15]: -9%
- percentage effect [16]: 0%
- percentage effect [17]: 4%
- percentage effect [18]: -22%
- percentage effect [19]: -6%
- percentage effect [20]: -2%
- percentage effect [21]: -6%
- percentage effect [22]: 8%
- percentage effect [23]: -9%
- IC50 [24]: 17.9 ± 10.6 nM
- percentage effect [25]: 14%
- percentage effect [26]: -23%
- percentage effect [27]: -9%
- percentage effect [28]: 6%
- percentage effect [29]: -4%
- percentage effect [30]: 7%
- percentage effect [31]: -10%
- percentage effect [32]: 3%
- percentage effect [33]: -3%
- percentage effect [34]: 7%
- percentage effect [35]: 6%
- percentage effect [36]: 0%
- percentage effect [37]: -4%
- percentage effect [38]: -1%
- percentage effect [39]: 4%
- percentage effect [40]: -33%
- percentage effect [41]: -23%
- percentage effect [42]: 2%
- percentage effect [43]: -37%
- percentage effect [44]: -8%

SMILES: COC1CN(C(=O)c2ccc3c(N)ncc(-c4ccc(-c5cnn(C)c5)cc4)c3c2)C1 [Compound 59]
- percentage effect [1]: -3%
- percentage effect [2]: -13%
- percentage effect [3]: -12%
- percentage effect [4]: 8%
- percentage effect [5]: -6%
- percentage effect [6]: -5%
- percentage effect [7]: -30%
- percentage effect [8]: 0%
- percentage effect [9]: -5%
- percentage effect [10]: -4%
- percentage effect [11]: 0%
- percentage effect [12]: 0%
- percentage effect [13]: 9%
- percentage effect [14]: 13%
- percentage effect [15]: 1%
- percentage effect [16]: -26%
- percentage effect [17]: 8%
- percentage effect [18]: -18%
- percentage effect [19]: -9%
- percentage effect [20]: 6%
- percentage effect [21]: 1%
- percentage effect [22]: -2%
- percentage effect [23]: 4%
- IC50 [24]: 114 ± 20.6 nM
- percentage effect [25]: -4%
- percentage effect [26]: 17%
- percentage effect [27]: -4%
- percentage effect [28]: -10%
- percentage effect [29]: -9%
- percentage effect [30]: 13%
- percentage effect [31]: 8%
- percentage effect [32]: -15%
- percentage effect [33]: -2%
- percentage effect [34]: -34%
- percentage effect [35]: 24%
- percentage effect [36]: 17%
- percentage effect [37]: 1%
- percentage effect [38]: 1%
- percentage effect [39]: 10%
- percentage effect [40]: -8%
- percentage effect [41]: -7%
- percentage effect [42]: 1%
- percentage effect [43]: -14%
- percentage effect [44]: -34%

Reference: PMC4904262 (ACS Medicinal Chemistry Letters, 2016)
